According to US20050004029A1, “Methods and compositions for treating vascular leak using hepatocyte growth factor” (priority 2001, published 2005):

How the values were obtained:
[1] = tested on: Human pulmonary artery endothelial cells; test: Transendothelial electrical resistance (TER) of human pulmonary artery endothelial cell monolayers; assay type: cell-based; conditions: then HGF 20 ng/ml; for effect on HGF-induced increases in TER, in words: pretreatment LY294002 25 μM, UO126 10 μM, SB203580 20 μM, Ro-31-2880 10 μM
Experimental: (§1) Bovine pulmonary artery endothelial cells were purchased from the American Type Culture Collection (ATCC®, Rockville, Md.) and utilized at passage 19-24. Cells were maintained in Medium 199 (Life Technologies, Rockville, Md.) supplemented with 20% (v/v) colostrum-free bovine serum (CFBS) (Irvine Scientific, Santa Ana, Calif.), 15 μg/ml endothelial cell growth supplement (Upstate Biotechnology, Lake Placid, N.Y.), 1% antibiotic and antimycotic, and 0.1 mM non-essential amino acids (Life Technologies). Human pulmonary artery endothelial cells were purchased from Clonetics (Walkersville, Md.), cultured in EBM-2 complete medium (Clonetics) and utilized at passage 5-10. Human alveolar epithelial cells (A549) were purchased from ATCC® and cultured in the same medium as the bovine endothelial cells, except that the endothelial cell growth supplement was omitted. All cells were maintained at 37° C. in a humidified atmosphere of 5% CO2 and 95% air. Both endothelial cell types grew to contact-inhibited monolayers with the typical cobblestone morphology (Garcia, J. G. N. et al. (1995) J. Cell. Physiol. 163:510-522; Liu, F. et al. (2001) Am. J. Respir. Cell. Mol. Biol. 24:711-719).
Electrical resistance of EC monolayers was measured using electrical cell impedance sensor system (Applied Biophysics Inc., Troy, N.Y.) as described in Garcia, J. G. N. et al. (2000) J. Appl. Physiol. 89:2333-2343. Cells grown on gold microelectrodes (10^−3 cm^2) in polycarbonate wells act as insulating particles, and the resistance across the monolayers (transendothelial electrical resistance, or TER) is measured in real time. As cells adhere on the microelectrode and intercellular cell contacts are formed or in response to agents which increase junctional integrity, the TER increases (Garcia, J. G. N. et al. (2001) J. Clin. Invest. 108:689-711). In contrast, cell retraction, rounding, or loss of adhesion is reflected by decreases in TER (Garcia, J. G. N. et al. (2000) J. Appl. Physiol. 89:2333-2343). These measurements provide a highly sensitive biophysical assay that indicates the state of cell shape, focal adhesion, and endothelial barrier function (Giaever, I. and Keese, C. R. (1993) Nature 366:591-592; Tiruppathi, C. et al. (1992) Proc. Natl. Acad. Sci. USA 89:7919-7923). All electrical resistance data are presented as normalized values. Briefly, current was applied across the electrodes by a 4000 Hz AC voltage source with an amplitude of 1 V in series with a 1 MΩ resistance to approximate a constant current source (−1 μA). The small gold electrode and the larger counter electrode (1 cm^2) were connected to a phase-sensitive lock-in amplifier (5301A; EG&G Instruments Corp, Princeton, N.J.) with a built in differential preamplifier (5316A; EG&G Instruments Corp.). The in-phase and out-of-phase voltages between the electrodes were monitored in real time with the lock-in amplifier and converted to scalar measurements of transendothelial impedance, of which resistance was the primary focus. Transendothelial electrical resistance was monitored for 30 min to establish a baseline resistance (Ro) which, for human lung endothelium, was typically between 8 to 12×10^3 Ω (wells with R0<7×10^3 Ω or R0 >15×10^3 Ω were rejected). For some experiments, total TER was vectorially resolved into components reflecting resistance to current flow beneath the cell layer (α) and resistance to current flow between adjacent cells (Rb) as described in Garcia et al. (2000) supra utilizing the method of Giaiver and Keese which models the endothelial monolayer mathematically (Giaever, I. and Keese, C. R. (1993) Nature 366:591-592). Thus, changes in α reflect alterations in the net state of cell-matrix adhesion, whereas changes in Rb reflect alterations in the integrity of cell-cell adhesion. TER values from each microelectrode were pooled at discrete time points and plotted versus time as the mean±standard error of the mean (Garcia et al. (2000) supra). […]

[2] = tested on: human endothelial monolayers; test: F-actin immunofluorescent microscopy (cortical actin ring); assay type: cell-based; conditions: LY294002 25 μM, 1 hr or SB203580 20 μM, 30 min; HGF 20 ng/ml
Experimental: Endothelial cell monolayers grown on gelatinized cover slips were rinsed with M199 and incubated with agonists in the same medium in a 37° C. incubator (5% CO2). Monolayers were then rinsed with PBS (3×2 min), fixed in 4% paraformaldehyde for 10 min, again rinsed with PBS (3×2 min), and permeabilized with 0.25% Triton X-100 for 5 min. Cells were then washed briefly with PBS (3×2 min), blocked with PBS containing 2% BSA for 30 min and incubated with 1 Unit/mL of Texas Red-X phalloidin (Molecular Probes, Eugene, Oreg.), β-catenin antibody (Transduction Laboratories, Lexington, Ky.), glycogen synthase kinase-3 β (GSK-3β) (Santa Cruz Biotechnology, Inc., Santa Cruz, Calif.), or mono-phosphorylated MLC antisera (see Garcia, J. G. N. et al. (2001) J. Clin. Invest. 108:689-711) for 1 hr. After washing with PBS (3×2 min), cover slips were mounted on slides using SlowFade mounting medium (Molecular Probes). Cells were analyzed using a 60× oil objective on a Nikon Eclipse TE 300 microscope. Images were captured by Sony Digital Photo camera DKC 5000. […]
The effect of HGF on the spatial localization of polymerized actin in human endothelial monolayers was investigated by immunofluorescent microscopy. […] F-actin staining was assessed with Texas red phalloidin and myosin light chain staining evaluated with anti-monophosphorylated myosin light chain polyclonal antibody.

p42/44 ERK = p42/44 ERK activation by phospho-specific immunoblotting; assay type: cell-based, human; conditions: UO126 10 μM, 30 min; HGF 20 ng/ml, 15 min
Experimental: Endothelial cell monolayers grown to confluence in 12-well plates and challenged with HGF were lysed with 100 μl of 2×SDS sample buffer, and cell lysates were transferred into microcentrifuge tubes and boiled for 5 min. After a brief spin, proteins from 10 μl cell lysates were separated on 12% SDS-PAGE and transferred to nitrocellulose (Schleicher & Schuell, Keene, N.H.) (30V, 18 h). After blocking with PBST (PBS with 0.1% Tween 20) containing 5% non-fat milk for 1 hr, nitrocellulose blots were reacted with primary antibodies diluted in PBST containing 5% BSA for 1 hr, washed with PBST (3×10 min), incubated with peroxidase-conjugated secondary antibodies (goat anti-rabbit IgG, 1:10,000 dilution, Sigma; or goat anti-mouse IgG, 1:10,000 dilution, Bio-Rad Labs, Richmond, Calif.) diluted in PBST with 5% non-fat milk for 1 hr and again washed with PBST (3×10 min). Finally, immunoreactive proteins were detected using ECL. The relative intensities of the protein bands were quantified by scanning densitometry.
The MAP family of kinases (ERK1/2 and p38) are actively involved in agonist-induced endothelial cell actin reorganization and barrier regulation (Verin, A. D. et al. (2000) Am. J. Physiol: Lung Cell Molec. Phys. 279:L360-L370, 2000; Garcia, J. G. N. et al. (2001) J. Clin. Invest. 108:689-711) and have been noted to participate in HGF-mediated cell activation (Liang, C. C. and Chen, H. C. (2001) J. Biol. Chem. 276:21146-21152). These reports were confirmed in human endothelial cell monolayers incubated with HGF (20 ng/ml, for 1, 2, 5, 10, 15, 20, 30, 60, or 120 min) where activation of p42/44 ERK and p38 MAPK by HGF was detected by immunoblotting with antibodies that only recognize the phosphorylated (activated) forms of ERK or p38 MAPK. The activation of ERKs was evident at 5 min, maximal after 10-15 min with a gradual decline thereafter, but remaining sustained above basal levels for more than 2 hrs. […] The onset of HGF-mediated activation of p38 MAPK was similar to ERK, with plateau at 10-15 min. However, the duration of this response was much more truncated than ERK activation, beginning to decline by 20 min and returning to basal value by 1 hr.

[3] = tested on: Bovine Pulmonary Artery Endothelium; test: Transendothelial electrical resistance (TER) across bovine pulmonary artery endothelium; assay type: cell-based; conditions: VEGF 100 ng/ml, Sph 1-P 1 μM, HGF 20 ng/ml; for TER response in words: thrombin, 10-60 min; for changes in TER 30 min / changes in TER 60 min / changes in TER 10 min: vs vehicle control, ±SEM, thrombin 100 μM; for changes in TER 10 min: (+) increased, (−) decreased
Experimental: as §1, with “air.” for “air. Both endothelial cell types grew to contact-inhibited monolayers with the typical cobblestone morphology (Garcia, J. G. N. et al. (1995) J. Cell. Physiol. 163:510-522; Liu, F. et al. (2001) Am. J. Respir. Cell. Mol. Biol. 24:711-719).”
Electrical resistance of EC monolayers was measured using electrical cell impedance sensor system (Applied Biophysics Inc., Troy, N.Y.) as described in Garcia, J. G. N. et al. (2000) J. Appl. Physiol. 89:2333-2343. Cells grown on gold microelectrodes (10^−3 cm^2) in polycarbonate wells act as insulating particles, and the resistance across the monolayers (transendothelial electrical resistance, or TER) is measured in real time. As cells adhere on the microelectrode and intercellular cell contacts are formed or in response to agents which increase junctional integrity, the TER increases (Garcia, J. G. N. et al. (2001) J. Clin. Invest. 108:689-711). In contrast, cell retraction, rounding, or loss of adhesion is reflected by decreases in TER (Garcia, J. G. N. et al. (2000) J. Appl. Physiol. 89:2333-2343). These measurements provide a highly sensitive biophysical assay that indicates the state of cell shape, focal adhesion, and endothelial barrier function (Giaever, I. and Keese, C. R. (1993) Nature 366:591-592; Tiruppathi, C. et al. (1992) Proc. Natl. Acad. Sci. USA 89:7919-7923). All electrical resistance data are presented as normalized values. Briefly, current was applied across the electrodes by a 4000 Hz AC voltage source with an amplitude of 1 V in series with a 1 MΩ resistance to approximate a constant current source (−1 μA). The small gold electrode and the larger counter electrode (1 cm^2) were connected to a phase-sensitive lock-in amplifier (5301A; EG&G Instruments Corp, Princeton, N.J.) with a built in differential preamplifier (5316A; EG&G Instruments Corp.). The in-phase and out-of-phase voltages between the electrodes were monitored in real time with the lock-in amplifier and converted to scalar measurements of transendothelial impedance, of which resistance was the primary focus. […] For some experiments, total TER was vectorially resolved into components reflecting resistance to current flow beneath the cell layer (α) and resistance to current flow between adjacent cells (Rb) as described in Garcia et al. (2000) supra utilizing the method of Giaiver and Keese which models the endothelial monolayer mathematically (Giaever, I. and Keese, C. R. (1993) Nature 366:591-592). Thus, changes in α reflect alterations in the net state of cell-matrix adhesion, whereas changes in Rb reflect alterations in the integrity of cell-cell adhesion. TER values from each microelectrode were pooled at discrete time points and plotted versus time as the mean±standard error of the mean (Garcia et al. (2000) supra).

Compound | effect on HGF-induced increases in TER, in words [1] | TER response in words [3] | changes in TER 30 min [3] | changes in TER 60 min [3] [%] | changes in TER 10 min [3] | also measured
C[S+]([O-])c1ccc(-c2nc(-c3ccncc3)c(-c3ccc(F)cc3)[nH]2)cc1 (stereo not shown) [SB203580, reference compound] | significantly blocked |  |  |  |  | effect on HGF-elicited cortical actin ring formation / actin remodeling [2]: significantly attenuated
N#CC(=C(/N)Sc1ccccc1N)/C(C#N)=C(/N)Sc1ccccc1N [UO126, reference compound] | significantly blocked |  |  |  |  | effect on HGF-stimulated ERK activity (p42/44 ERK): completely abolished
Thrombin |  | rapidly decreases TER values which begin to abate after 30 min | −50 ± 4% | −14 ± 4 | +30 ± 3% | 
O=c1cc(N2CCOCC2)oc2c(-c3ccccc3)cccc12 [LY294002, reference compound] |  |  |  |  |  | reduction of HGF-induced increase in TER ([1]; inhibitor pretreatment (LY294002 25 μM; Ro-31-2880 10 μM)): > 50%
VEGF |  | early increase in TER, which then falls to produce mild barrier dysfunction | 0% ± 3% | −20 ± 4 | +30 ± 4% | 
